In US20140161827A1, “COMPOSITIONS AND METHODS FOR TREATING CANCER” (University of Virginia Patent Foundation, priority 2011, published 2014):
Where a SMILES comes first, the peptide text is derived from it. The star is where a group is joined. Cbz = O=C(OCc1ccccc1)*; CH2F = FC*

What was measured:
[1] = test system: LTED cells; experiment: Levels of apoptotic proteins in treated LTED cells (immunoblot of cytosolic and mitochondrial fractions, immunoprecipitation); type: cell-based, human; conditions: for Mcl-1 level: FTS 75 μM 0-48 h (by 24 h) or estradiol 0-48 h; for Bim level (BimEL, BimL): FTS 75 μM 0-48 h or estradiol 0-48 h (early time points 4, 8 h); for Survivin level: FTS 75 μM (from 8 to 16 h, undetectable at 24 and 48 h) or estradiol; for Phospho JNK level: FTS 75 μM over 48 hours or estradiol; for Cytochrome c level in the cytosol / Smac (Smac/Diablo) level in the cytosol: FTS at 24 and 48 h, estradiol by 48 h
Procedure: The inventors herein initially examined the class of proteins which influences MOMP (mitochondrial outer membrane pore) formation, a key component of the intrinsic pathway of apoptosis. Pro-apoptotic members such as Bax, Bim, and Bak, promote the release of Cytochrome c from the mitochondria, whereas anti-apoptotic members, such as Bcl-2 and Mcl-1, prevent release. The balance of pro-apoptotic and anti-apoptotic Bcl-2 proteins therefore influences the fate of the cell. LTED cells were treated with 75 μM FTS for 0, 4, 8, 16, 24 and 48 h with examination of cytosolic fractions (FIG. 1A).
To ascertain whether Bax was activated in FTS-treated LTED cells, Bcl-2 was immunoprecipitated and then probed for Bim and Bax (See FIG. 1B). Probed cell extracts were probed with the use of an antibody that recognizes only the conformationally altered Bax protein. […] The pro-apoptotic effect of Bim is predominantly through its binding to Bcl-2 that ablates Bcl-2 pro-survival function. As shown in FIG. 1B we found the interaction between Bim and Bcl-2 is increased, whereas the interaction between Bax and Bcl-2 was reduced. As evidence of the exodus of proteins through mitochondrial membrane pores, Cytochrome c and Smac levels in the cytosol were increased at 24 and 48 h, times when Mcl-1 was decreased and Bim, increased (FIG. 1A). […] After showing these effects on MOMP, other key factors involved in apoptosis were examined.
Cells were treated with estradiol for 0, 2, 4, 8, 24 and 48 h and cytosolic fractions prepared. […] Mitochondrial fractions (FIG. 1D, right panel), confirmed the increase in Bim isoforms. […] Because Bim appeared to be critical for estradiol-mediated apoptosis, we carried out a titration of E2, probed for Bim and found it increased over time (See FIG. 1E).
Cells grown in 100 mm dishes were washed with cold PBS and extracted with 1 ml lysis buffer (50 mM Tris-HCl, 150 mM NaCl, 5 mM EDTA, 25 mM NaF, 2 mM NaVO4, 5% glycerol, 1% Triton X-100, 10 μg/ml leupeptin, aprotinin, and pepstatin). Samples were incubated on ice for 30 min, sonicated, and centrifuged at 14,000 rpm for 10 min at 4° C. Supernatants containing 0.5 mg total protein were incubated with antibody against the target protein at 4° C. overnight before addition of 40 μl Protein G beads (Invitrogen) and continued incubation at 4° C. for 2 h. The protein G beads with immunocomplex were centrifuged at 14,000 rpm for 20 sec. The supernatant was carefully removed. The beads were washed twice with 1 ml buffer II (20 mM MOPS, 2 mM EGTA, 5 mM EDTA, 25 mM NaF, 40 mM β-glycerophosphate, 10 mM sodium pyrophosphate, 2 mM NaVO4, 0.5% Triton X-100, 1 mM PMSF, 10 μg/ml leupeptin, aprotinin, and pepstatin) and then boiled in 50 μl 2× Laemmli's buffer. The samples were subjected to electrophoresis in 10% SDS polyacrylamide gel followed by immunoblotting.

[2] = test system: MCF-7-5C cells; experiment: Apoptosis in MCF-7-5C cells, E2 and T-DM-1 alone and in combination; type: cell-based; conditions: agent alone
[3] = test system: LTED cells; experiment: FTS-induced apoptosis and caspase involvement in LTED cells; type: cell-based, human
Procedure: FTS has been reported to invoke cell death through caspase activation in non-breast tissues. To address whether FTS was promoting death of breast cancer cells by activation of caspases LTED cells were treated with either vehicle, FTS, or FTS in the presence of increasing concentrations of the pan-caspase inhibitor z-VAD-fmk (See FIG. 1C top panel). […] Caspase-8 activity does appear to increase; however this is not inhibited by Z-IETD-FMK. See FIG. 2, showing a time course bar graph (2A) and a cell viability versus concentration curve (2B) displaying (FIG. 2A) the effect of FTS and curcumin in combination on wild type MCF-7 cells; and (FIG. 2B) the effect of FTS alone or in combination with curcumin on MCF-7 cell viability.

[4] = test system: LTED (long-term estrogen deprived) cells; experiment: Growth inhibition and drug interaction assay (nuclei count, combination index), LTED; type: cell-based, human
Procedure: When the combination index is equivalent to one (CI=1), this means the two drugs work together in an additive manner. […] The effective dose one (D1) is then plotted on the x-axis and the effective dose two (D2) was plotted on the y-axis. The plotting of the effective dose (ED) can be is done at Fa equals 0.5, 0.75, 0.9 and 0.95. This generates the isobologram.
Cells were plated in six-well plates at a density of 60,000 cells per well. Two days later, the cells were treated in triplicate as described in the descriptions of the figures. At the end of treatment, cells were rinsed twice with saline. Nuclei were prepared by sequential addition of 1 mL HEPES-MgCl2 solution (0.01 mol/L HEPES and 1.5 mmol/L MgCl2) and 0.1 mL ZAP solution [0.13 mol/L ethylhexadecyldimethylammonium bromide in 3% glacial acetic acid (v/v)] and were counted using a Coulter counter (BeckmanCoulter, Inc., Fullerton, Calif.). […] The combination index and values with a mean and standard deviation were calculated using the Monte Carlo simulation using the computer software CalcuSyn from Biosoft (Cambridge, U.K.) [10].
The nature of the interaction between the agents was evaluated by the combination index method of Chou and Talalay [8,9]. […]
Where D is the dose that yields x % growth inhibition and α=0 for mutually exclusive drugs and α=1 for mutually non-exclusive drugs. Synergy as calculated and defined by the CalcuSyn software as a CI<1; additivity is CI=1 and antagonism is CI>1[10].

[5] = test system: MCF-7 cells; experiment: Growth inhibition and drug interaction assay (nuclei count, combination index), MCF-7; type: cell-based; conditions: Homo sapiens, MCF7, FIG. 3, read-out: concentration with 50% inhibitory effect
Text: We examined some of these agents in both the non-adapted cell lines (See FIGS. 4, 6, 8) and adapted cell lines (See FIGS. 5, 7, 9). We treated breast cancer cells with increasing concentrations of the individual drugs followed by testing with their combinations. We determined the number of cells that were killed (fraction affected, fa) and the number of cells that were not affected by the drug (fraction unaffected, fu) (See FIG. 4). Then dose effect curves are transformed into their corresponding linear forms by the median-effect plot where y=log(fa/fu) vs. x=log (D)[8,34]. From the median effect plot the combination index (CI) can be determined. […]
Cells were plated in six-well plates at a density of 60,000 cells per well. […] Nuclei were prepared by sequential addition of 1 mL HEPES-MgCl2 solution (0.01 mol/L HEPES and 1.5 mmol/L MgCl2) and 0.1 mL ZAP solution [0.13 mol/L ethylhexadecyldimethylammonium bromide in 3% glacial acetic acid (v/v)] and were counted using a Coulter counter (BeckmanCoulter, Inc., Fullerton, Calif.). […] The combination index and values with a mean and standard deviation were calculated using the Monte Carlo simulation using the computer software CalcuSyn from Biosoft (Cambridge, U.K.).
The nature of the interaction between the agents was evaluated by the combination index method of Chou and Talalay. […]

[6] = FTS-treated LTED cells, Bcl-2 immunoprecipitation

Compound	Mcl-1 level ([1]; LTED cells)	Bim level (BimEL, BimL) ([1]; LTED cells)	Survivin level ([1]; LTED cells)	Phospho JNK level ([1]; LTED cells)	Cytochrome c level in the cytosol ([1]; LTED cells)	Smac (Smac/Diablo) level in the cytosol ([1]; LTED cells)	induction of apoptosis [2]	other results
C[C@]12CC[C@@H]3c4ccc(O)cc4CC[C@H]3[C@@H]1CC[C@@H]2O [E2, 17β-Estradiol]	decreased	increased	not	increased	released into the cytosol	released into the cytosol	induced apoptosis	Bok level ([1]; LTED cells, titration of E2): increased in a concentration-dependent manner
CC(C)=CCC/C(C)=C/CC/C(C)=C/CSc1ccccc1C(=O)O [FTS, S-trans, trans-Farnesylthiosalicyclic acid]	decrease	increase	decreased	increased	increased	increased	–	Apoptosis inducing factor (AIF) in the cytosol ([1]; FTS-treated LTED cells): appeared in the cytosol only at 48 h; interaction between Bax and Bcl-2 [1, 6]: reduced; interaction between Bim and Bcl-2 [1, 6]: increased; Bax activation (conformationally altered Bax) ([1]; FTS-treated LTED cells, conformation-specific antibody): underwent a conformational change; Bcl-2 level ([1]; LTED cells, FTS 75 μM 0-48 h, cytosolic fractions): unchanged; XIAP level ([1]; LTED cells, FTS 75 μM or estradiol): did not change; p21 level ([1]; LTED cells, FTS 75 μM, from 4 h to 48 h): steady decrease; caspase-8 changes (death receptor pathway) ([3]; FTS-treated LTED cells): no substantial caspase-8 changes; cell number ([4]; FTS alone, doses 25, 50, 75 and 100 μM): 14 % of control
CC[C@@H](C(=O)[C@@H](C)[C@@H](O)[C@H](C)[C@@H]1O[C@@H]([C@@H](CC)C(=O)O)CC[C@@H]1C)[C@H]1O[C@]2(C=C[C@@H](O)[C@]3(CC[C@@](C)([C@H]4CC[C@](O)(CC)[C@H](C)O4)O3)O2)[C@H](C)C[C@@H]1C [Salinomycin]	–	–	–	–	–	–	–	IC50 [5]: 2000 nM
COc1cc(/C=C/C(=O)CC(=O)/C=C/c2ccc(O)c(OC)c2)ccc1O [curcumin]	–	–	–	–	–	–	–	concentration at which initial effects in reducing cell number were observed ([4]; dose response, preliminary studies): 250 nM; concentration showing effects in reducing cell number, later studies ([4]; later studies): 125 nM
COC(=O)C[C@H](NC(=O)[C@H](C)NC(=O)[C@@H](NC(=O)OCc1ccccc1)C(C)C)C(=O)CF [z-VAD-fmk] (Cbz-Val-Ala-Asp(OMe)-CH2F)	–	–	–	–	–	–	–	effect on FTS-induced apoptosis ([3]; LTED cells, FTS plus increasing concentrations of pan-caspase inhibitor): blocked
T-DM1	–	–	–	–	–	–	induced apoptosis	–
